#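 Briefly, cells in 96-well plates were exposed to five compound concentrations for 48 h, and endpoints were estimated by linear interpolation. TGI is the concentration that stops growth completely.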
# Experiments:
# Assay in all cases: growth of human tumour cells (NCI), 48 h
# [1] = test system: NCI-H226 lung
# [2] = test system: SF-268 CNS
# [3] = test system: HCT-15 colon
# [4] = test system: IGROV1 ovarian
# [5] = test system: BT-549 breast
# [6] = test system: MALME-3M melanoma
# [7] = test system: OVCAR-5 ovarian
# [8] = test system: SNB-75 CNS
# [9] = test system: HOP-62 NSCLC
# [10] = test system: SW-620 colon
# [11] = test system: 786-0 renal
# [12] = test system: U251 CNS
# [13] = test system: NCI-H522 lung
# [14] = test system: HS 578T breast
# [15] = test system: HL-60(TB) leukemia
# [16] = test system: ACHN renal
# [17] = test system: TK-10 renal
# [18] = test system: CCRF-CEM leukemia
# [19] = test system: UACC-257 melanoma
# [20] = test system: UO-31 renal
# [21] = test system: OVCAR-4 ovarian
# [22] = test system: MOLT-4 leukemia
# [23] = test system: COLO 205 colon
# [24] = test system: M14 melanoma
# [25] = test system: NCI-H23 lung
# [26] = test system: A549 NSCLC
# [27] = test system: MDA-N
# [28] = test system: SK-MEL-2 melanoma
# [29] = test system: SK-MEL-5 melanoma
# [30] = test system: T-47D breast
# [31] = test system: MCF7 breast
# [32] = test system: PC-3 prostate
# [33] = test system: DU-145 prostate
# [34] = test system: HCT-116 colon
# [35] = test system: SF-295 CNS
# [36] = test system: RXF 393 renal
# [37] = test system: OVCAR-8 ovarian
# [38] = test system: LOX IMVI melanoma
# [39] = test system: UACC-62 melanoma
# [40] = test system: KM12 colon
# [41] = test system: NCI/ADR-RES ovarian
# [42] = test system: MDA-MB-231 breast
# [43] = test system: SNB-19 CNS
# [44] = test system: A498 renal
# [45] = test system: SK-OV-3 ovarian
# [46] = test system: MDA-MB-435
# [47] = test system: SN12C renal
# [48] = test system: SF-539 CNS
# [49] = test system: HT29 colon
# [50] = test system: CAKI-1 renal
# [51] = test system: EKVX NSCLC
# [52] = test system: SK-MEL-28 melanoma
# [53] = test system: NCI-H460 lung
# [54] = test system: HCC-2998 colon
# [55] = test system: RPMI-8226 leukemia
# [56] = test system: OVCAR-3 ovarian
smiles,measurement,setting,value
CNc1cc(OCc2ccccc2)c(OC)cc1C(=O)N1CCC[C@H]1CO,TGI,[1],> 100 µM
same,TGI,[2],> 100 µM
same,TGI,[3],> 100 µM
same,TGI,[4],> 100 µM
same,TGI,[5],> 100 µM
same,TGI,[6],> 100 µM
same,TGI,[7],> 100 µM
same,TGI,[8],> 100 µM
same,TGI,[9],> 100 µM
same,TGI,[10],> 100 µM
same,TGI,[11],> 100 µM
same,TGI,[12],> 100 µM
same,TGI,[13],> 100 µM
same,TGI,[14],> 100 µM
same,TGI,[15],> 100 µM
same,TGI,[16],> 100 µM
same,TGI,[17],> 100 µM
same,TGI,[18],> 100 µM
same,TGI,[19],> 100 µM
same,TGI,[20],> 100 µM
same,TGI,[21],> 100 µM
same,TGI,[22],> 100 µM
same,TGI,[23],> 100 µM
same,TGI,[24],> 100 µM
same,TGI,[25],> 100 µM
same,TGI,[26],> 100 µM
same,TGI,[27],> 100 µM
same,TGI,[28],> 100 µM
same,TGI,[29],> 100 µM
same,TGI,[30],> 100 µM
same,TGI,[31],> 100 µM
same,TGI,[32],> 100 µM
same,TGI,[33],> 100 µM
same,TGI,[34],> 100 µM
same,TGI,[35],> 100 µM
same,TGI,[36],> 100 µM
same,TGI,[37],> 100 µM
same,TGI,[38],> 100 µM
same,TGI,[39],> 100 µM
same,TGI,[40],> 100 µM
same,TGI,[41],> 100 µM
same,TGI,[42],> 100 µM
same,TGI,[43],> 100 µM
same,TGI,[44],> 100 µM
same,TGI,[45],> 100 µM
same,TGI,[46],> 100 µM
same,TGI,[47],> 100 µM
same,TGI,[48],> 100 µM
same,TGI,[49],> 100 µM
same,TGI,[50],> 100 µM
same,TGI,[51],> 100 µM
same,TGI,[52],> 100 µM
COc1ccc(-c2nc3ccccc3c(=O)[nH]2)c(OC)c1,TGI,[1],> 100 µM
same,TGI,[2],> 100 µM
same,TGI,[3],> 100 µM
same,TGI,[4],> 100 µM
same,TGI,[5],> 100 µM
same,TGI,[6],> 100 µM
same,TGI,[7],> 100 µM
same,TGI,[8],> 100 µM
same,TGI,[9],> 100 µM
same,TGI,[10],> 100 µM
same,TGI,[11],> 100 µM
same,TGI,[12],> 100 µM
same,TGI,[14],> 100 µM
same,TGI,[16],> 100 µM
same,TGI,[18],> 100 µM
same,TGI,[19],> 100 µM
same,TGI,[53],> 100 µM
same,TGI,[20],> 100 µM
same,TGI,[21],> 100 µM
same,TGI,[22],> 100 µM
same,TGI,[23],> 100 µM
same,TGI,[24],> 100 µM
same,TGI,[25],> 100 µM
same,TGI,[26],> 100 µM
same,TGI,[27],> 100 µM
same,TGI,[28],> 100 µM
same,TGI,[29],> 100 µM
same,TGI,[30],> 100 µM
same,TGI,[31],> 100 µM
same,TGI,[32],> 100 µM
same,TGI,[33],> 100 µM
same,TGI,[34],> 100 µM
same,TGI,[35],> 100 µM
same,TGI,[36],> 100 µM
same,TGI,[37],> 100 µM
same,TGI,[39],> 100 µM
same,TGI,[40],> 100 µM
same,TGI,[54],> 100 µM
same,TGI,[41],> 100 µM
same,TGI,[42],> 100 µM
same,TGI,[43],> 100 µM
same,TGI,[44],> 100 µM
same,TGI,[45],> 100 µM
same,TGI,[46],> 100 µM
same,TGI,[47],> 100 µM
same,TGI,[55],83.4 µM
same,TGI,[56],> 100 µM
same,TGI,[49],> 100 µM
same,TGI,[50],> 100 µM
same,TGI,[51],> 100 µM
